In patent publication US8664220B2, “Polycyclic compounds as lysophosphatidic acid receptor antagonists” (Amira Pharmaceuticals, Inc., priority 2009, dated 2014):

molecular target: T1, human LPA1 (Homo sapiens, UniProt Q92633); experiment: LPA1 calcium flux assay; format: cell-based; conditions: human LPA1 expressing CHO cells, stimulated with 10 nM LPA; read-out: HLPA1 Ca Flux IC50
T1 construct: the full-length cDNA for human LPA1 was obtained by PCR of the reverse transcription reaction; expressed in transfected cells
Protocol: Establishment of a CHO Cell Line Stably Expressing Human LPA1
A 1.1 kb cDNA encoding the human LPA1 receptor was cloned from human lung.
Human lung RNA (Clontech Laboratories, Inc. USA) was reverse transcribed using the RETROscript kit (Ambion, Inc.) and the full-length cDNA for human LPA1 was obtained by PCR of the reverse transcription reaction. The nucleotide sequence of the cloned human LPA1 was determined by sequencing and confirmed to be identical to the published human LPA1 sequence (An et al. Biochem. Biophys. Res. Commun. 231:619 (1997). The cDNA was cloned into the pcDNA5/FRT expression plasmid and transfected in CHO cells using lipofectamine 2000 (Invitrogen Corp., USA). Clones stably expressing human LPA1 were selected using hygromycin and identified as cells that show Ca-influx in response to LPA.
LPA1 and LPA3 Calcium Flux Assays
Human LPA1 or LPA3 expressing CHO cells are seeded at 20,000-45,000 cells per well in a 96-well poly-D-lysine coated plate one or two days before the assay. Prior to the assay, the cells are washed once with PBS and then cultured in serum-free media overnight. On the day of the assay, a calcium indicator dye (Calcium 4, Molecular Devices) in assay buffer (HBSS with Ca^2+ and Mg^2+ and containing 20 mM Hepes and 0.3% fatty-acid free human serum albumin) is added to each well and incubation continued for 1 hour at 37° C. 10 μl of test compounds in 2.5% DMSO are added to the cells and incubation continued at room temperature for 30 minutes. Cells are the stimulated by the addition of 10 nM LPA and intracellular Ca^2+ measured using the Flexstation 3 (Molecular Devices). IC50s are determined using Graphpad prism analysis of drug titration curves.

T1 sequence (Q92633 whole entry): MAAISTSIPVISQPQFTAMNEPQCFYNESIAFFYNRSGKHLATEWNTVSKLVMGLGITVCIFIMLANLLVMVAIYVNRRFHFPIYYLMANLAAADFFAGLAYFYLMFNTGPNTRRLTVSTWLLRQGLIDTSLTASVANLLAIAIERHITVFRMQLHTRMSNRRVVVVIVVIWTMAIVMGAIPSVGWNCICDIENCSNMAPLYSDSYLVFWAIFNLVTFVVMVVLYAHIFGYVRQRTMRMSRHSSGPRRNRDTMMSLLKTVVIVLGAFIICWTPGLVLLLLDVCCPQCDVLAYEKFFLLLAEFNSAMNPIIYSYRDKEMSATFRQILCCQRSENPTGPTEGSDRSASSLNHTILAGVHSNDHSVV

SMILES | IC50 [nM]
Cc1noc(-c2ccc(-c3ccc(C4(C(=O)O)CC4)cc3)cc2)c1Cn1ccc(-c2ccc(Br)cc2)n1 [Compound 1-13, 1-(4′-{4-[3-(4-Bromo-phenyl)-pyrazol-1-ylmethyl]-3-methyl-isoxazol-5-yl}-biphenyl-4-yl)-cyclopropanecarboxylic acid] | 1000 to 50000
Cc1noc(-c2ccc(-c3ccc(C4(C(=O)O)CC4)cc3)cc2)c1CN1C(=O)OC[C@@H]1c1ccccc1 [Compound 1-14, 1-{4′-[3-Methyl-4-((S)-2-oxo-4-phenyl-oxazolidin-3-ylmethyl)-isoxazol-5-yl]-biphenyl-4-yl}-cyclopropanecarboxylic acid] | 1000 to 50000
Cc1noc(-c2ccc(-c3ccc(C4(C(=O)O)CC4)cc3)cc2)c1CN1C(=O)O[C@@H](c2ccccc2)[C@H]1C [Compound 1-15, 1-{4′-[3-Methyl-4-((4R,5S)-4-methyl-2-oxo-5-phenyl-oxazolidin-3-ylmethyl)-isoxazol-5-yl]-biphenyl-4-yl}-cyclopropanecarboxylic acid] | 300 to 1000
Cc1noc(-c2ccc(-c3ccc(C4(C(=O)O)CC4)cc3)cc2)c1CN1C(=O)O[C@H](c2ccccc2)[C@@H]1C [Compound 1-16, 1-{4′-[3-Methyl-4-((4S,5R)-4-methyl-2-oxo-5-phenyl-oxazolidin-3-ylmethyl)-isoxazol-5-yl]-biphenyl-4-yl}-cyclopropanecarboxylic acid] | < 300
Cc1noc(-c2ccc(-c3ccc(C4(C(=O)O)CC4)cc3)cc2)c1CN1CCC(c2ccccc2)C1 (stereo not drawn) [Compound 1-17, 1-{4′-[3-Methyl-4-(3-phenyl-pyrrolidin-1-ylmethyl)-isoxazol-5-yl]-biphenyl-4-yl}-cyclopropanecarboxylic acid] | < 300
Cc1noc(-c2ccc(-c3ccc(C4(C(=O)O)CC4)cc3)cc2)c1CN1CCCC(c2ccccc2)C1 (stereo not drawn) [Compound 1-18, 1-{4′-[3-Methyl-4-(3-phenyl-piperidin-1-ylmethyl)-isoxazol-5-yl]-biphenyl-4-yl}-cyclopropanecarboxylic acid] | < 300
Cc1noc(-c2ccc(-c3ccc(C4(C(=O)O)CC4)cc3)cc2)c1CNc1nnc(-c2ccccc2)o1 [Compound 1-19, 1-(4′-{3-Methyl-4-[(5-phenyl-[1,3,4]oxadiazol-2-ylamino)-methyl]-isoxazol-5-yl}-biphenyl-4-yl)-cyclopropanecarboxylic acid] | < 300
Cc1noc(-c2ccc(-c3ccc(C4(C(=O)O)CC4)cc3)cc2)c1Cn1nncc1-c1ccccc1 [Compound 1-20, 1-{4′-[3-Methyl-4-(5-phenyl-[1,2,3]triazol-1-ylmethyl)-isoxazol-5-yl]-biphenyl-4-yl}-cyclopropanecarboxylic acid] | 300 to 1000
Cc1noc(-c2ccc(-c3ccc(C4(C(=O)O)CC4)cc3)cc2)c1Cn1nnc(-c2ccccc2)n1 [Compound 1-21, 1-{4′-[3-Methyl-4-(5-phenyl-tetrazol-2-ylmethyl)-isoxazol-5-yl]-biphenyl-4-yl}-cyclopropanecarboxylic acid] | < 300
Cc1noc(-c2ccc(-c3ccc(C4(C(=O)O)CC4)cc3)cc2)c1CN1CC(c2ccccc2)OC1=O (stereo not drawn) [Compound 1-22, 1-{4′-[3-Methyl-4-(2-oxo-5-phenyl-oxazolidin-3-ylmethyl)-isoxazol-5-yl]-biphenyl-4-yl}-cyclopropanecarboxylic acid] | < 300
Cc1noc(-c2ccc(-c3ccc(C4(C(=O)O)CC4)cc3)cc2)c1Cn1cc(-c2ccccc2)cn1 [Compound 1-23, 1-{4′-[3-Methyl-4-(4-phenyl-pyrazol-1-ylmethyl)-isoxazol-5-yl]-biphenyl-4-yl}-cyclopropanecarboxylic acid] | < 300
Cc1noc(-c2ccc(-c3ccc(C4(C(=O)O)CC4)cc3)cc2)c1-c1nnc(Cc2ccccc2)o1 [Compound 1-24, 1-{4′-[4-(5-Benzyl-[1,3,4]oxadiazol-2-yl)-3-methyl-isoxazol-5-yl]-biphenyl-4-yl}-cyclopropanecarboxylic acid] | 1000 to 50000
Cc1noc(-c2ccc(-c3ccc(C4(C(=O)O)CC4)cc3)cc2)c1C1CN(Cc2ccccc2)C(=O)O1 (stereo not drawn) [Compound 1-28, 1-{4′-[4-(3-Benzyl-2-oxo-oxazolidin-5-yl)-3-methyl-isoxazol-5-yl]-biphenyl-4-yl}-cyclopropanecarboxylic acid] | < 300
Cc1noc(-c2ccc(-c3ccc(C4(C(=O)O)CC4)cc3)cc2)c1Cc1nnc(Cc2ccccc2)o1 [Compound 1-29, 1-{4′-[4-(5-Benzyl-[1,3,4]oxadiazol-2-ylmethyl)-3-methyl-isoxazol-5-yl]-biphenyl-4-yl}-cyclopropanecarboxylic acid] | < 300
Cc1noc(-c2ccc(-c3ccc(C4(C(=O)O)CC4)cc3)cc2)c1C(O)c1nnc(Cc2ccccc2)o1 (stereo not drawn) [Compound 1-30, 1-(4′-{4-[(5-Benzyl-[1,3,4]oxadiazol-2-yl)-hydroxy-methyl]-3-methyl-isoxazol-5-yl}-biphenyl-4-yl)-cyclopropanecarboxylic acid] | < 300
Cc1noc(-c2ccc(-c3ccc(C4(C(=O)O)CC4)cc3)cc2)c1Cc1cn(Cc2ccccc2)nn1 [Compound 1-31, 1-{4′-[4-(1-Benzyl-1H-[1,2,3]triazol-4-ylmethyl)-3-methyl-isoxazol-5-yl]-biphenyl-4-yl}-cyclopropanecarboxylic acid] | < 300
Cc1noc(-c2ccc(-c3ccc(C4(CC(=O)O)CC4)cc3)cc2)c1C(O)CCCc1ccc(Cc2ccccc2)cc1 (stereo not drawn) [Compound 1-32, [1-(4′-{4-[4-(4-Benzyl-phenyl)-1-hydroxy-butyl]-3-methyl-isoxazol-5-yl}-biphenyl-4-yl)-cyclopropyl]-acetic acid] | 1000 to 50000
Cc1noc(-c2ccc(-c3ccc(C4(CC(=O)O)CC4)cc3)cc2)c1C(O)CCCc1ccc(Oc2ccccc2)cc1 (stereo not drawn) [Compound 1-33, [1-(4′-{-4-[1-Hydroxy-4-(4-phenoxy-phenyl)-butyl]-3-methyl-isoxazol-5-yl}-biphenyl-4-yl)-cyclopropyl]-acetic acid] | 1000 to 50000
Cc1noc(-c2ccc(-c3ccc(C4(C(=O)O)CC4)cc3)cc2)c1NC1CCN(Cc2ccccc2)CC1 [Compound 1-36, 1-{4′-[4-(1-Benzyl-piperidin-4-ylamino)-3-methyl-isoxazol-5-yl]-biphenyl-4-yl}-cyclopropanecarboxylic acid] | 1000 to 50000
Cc1noc(-c2ccc(-c3ccc(C4(CC(=O)O)CC4)cc3)cc2)c1NC1CCN(Cc2ccccc2)CC1 [Compound 1-37, (1-{4′-[4-(1-Benzyl-piperidin-4-ylamino)-3-methyl-isoxazol-5-yl]-biphenyl-4-yl}-cyclopropyl)-acetic acid] | 1000 to 50000
Cc1noc(-c2ccc(-c3ccc(C4(C(=O)O)CC4)cc3)cc2)c1C(O)c1nnc(-c2ccccc2)o1 (stereo not drawn) [Compound 1-38, 1-(4′-{4-[Hydroxy-(5-phenyl-[1,3,4]oxadiazol-2-yl)-methyl]-3-methyl-isoxazol-5-yl}-biphenyl-4-yl)-cyclopropanecarboxylic acid] | < 300
Cc1noc(-c2ccc(-c3ccc(C4(CC(=O)O)CC4)cc3)cc2)c1C(O)c1nnc(-c2ccccc2)o1 (stereo not drawn) [Compound 1-39, [1-(4′-{4-[Hydroxy-(5-phenyl-[1,3,4]oxadiazol-2-yl)-methyl]-3-methyl-isoxazol-5-yl}-biphenyl-4-yl)-cyclopropyl]-acetic acid] | < 300
Cc1noc(-c2ccc(-c3ccc(C4(CC(=O)O)CC4)cc3)cc2)c1NC(C)c1cc(-c2ccccc2)no1 (stereo not drawn) [Compound 1-42, [1-(4′-{3-Methyl-4-[1-(3-phenyl-isoxazol-5-yl)-ethylamino]-isoxazol-5-yl}-biphenyl-4-yl)-cyclopropyl]-acetic acid] | < 300
Cc1noc(-c2ccc(-c3ccc(C4(CC(=O)O)CC4)cc3)cc2)c1NC(C)Cc1ccc(OCc2ccc(C(F)(F)F)cc2)cc1 (stereo not drawn) [Compound 1-45, {1-[4′-(3-Methyl-4-{1-methyl-2-[4-(4-trifluoromethyl-benzyloxy)-phenyl]-ethylamino}-isoxazol-5-yl)-biphenyl-4-yl]-cyclopropyl}-acetic acid] | 300 to 1000
Cc1noc(-c2ccc(-c3ccc(C4(C(=O)O)CC4)cc3)cc2)c1C(O)c1nnc(Cc2cccc(C(F)(F)F)c2)o1 (stereo not drawn) [Compound 1-46, 1-[4′-(4-{Hydroxy-[5-(3-trifluoromethyl-benzyl)-[1,3,4]oxadiazol-2-yl]-methyl}-3-methyl-isoxazol-5-yl)-biphenyl-4-yl]-cyclopropanecarboxylic acid] | 300 to 1000
Cc1noc(-c2ccc(-c3ccc(C4(C(=O)O)CC4)cc3)cc2)c1C(NS(C)(=O)=O)c1cn(Cc2ccccc2)nn1 (stereo not drawn) [Compound 1-47, 1-(4′-{4-[(1-Benzyl-1H-[1,2,3]triazol-4-yl)-methanesulfonylamino-methyl]-3-methyl-isoxazol-5-yl}-biphenyl-4-yl)-cyclopropanecarboxylic acid] | > 50000
Cc1noc(-c2ccc(-c3ccc(CC(=O)O)cc3)cc2)c1C(O)c1cn(Cc2ccccc2)nn1 (stereo not drawn) [Compound 1-48, (4′-{4-[(1-Benzyl-1H-[1,2,3]triazol-4-yl)-hydroxy-methyl]-3-methyl-isoxazol-5-yl}-biphenyl-4-yl)-acetic acid] | < 300
